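Tested at 5 concentrations; 48 h exposure; 96-well plates; endpoints linearly interpolated, else capped at highest concentration. GI50 is the concentration that inhibits growth by half. TGI denotes the concentration required for complete inhibition of growth.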
Assays:
Assay in all cases: NCI tumour cell line growth inhibition, 48 h
SK-MEL-28 melanoma = tested on: SK-MEL-28 melanoma
LOX IMVI melanoma = tested on: LOX IMVI melanoma
HT29 colon = tested on: HT29 colon
786-0 renal = tested on: 786-0 renal
PC-3 prostate = tested on: PC-3 prostate
OVCAR-3 ovarian = tested on: OVCAR-3 ovarian
MCF7 breast = tested on: MCF7 breast
SF-295 CNS = tested on: SF-295 CNS
SR leukemia = tested on: SR leukemia
OVCAR-8 ovarian = tested on: OVCAR-8 ovarian

Row | Structure (SMILES) | GI50 (SK-MEL-28 melanoma) [µM] | TGI (SK-MEL-28 melanoma) [µM] | GI50 (LOX IMVI melanoma) [µM] | TGI (LOX IMVI melanoma) [µM] | GI50 (HT29 colon) [µM] | TGI (HT29 colon) [µM] | GI50 (786-0 renal) [µM] | TGI (786-0 renal) [µM] | GI50 (PC-3 prostate) [µM] | TGI (PC-3 prostate) [µM] | GI50 (OVCAR-3 ovarian) [µM] | TGI (OVCAR-3 ovarian) [µM] | GI50 (MCF7 breast) [µM] | TGI (MCF7 breast) [µM] | GI50 (SF-295 CNS) [µM] | TGI (SF-295 CNS) [µM] | GI50 (SR leukemia) [µM] | TGI (SR leukemia) [µM] | GI50 (OVCAR-8 ovarian) [µM] | TGI (OVCAR-8 ovarian) [µM]
1 | C1CC[N-]CC1.CC(=N\O)/C(C)=N/O.CC(=N\O)/C(C)=N/O.OC1[CH-]CCCC1.[Co+2] | 32.5 | > 100 | 36.4 | > 100 | 72.5 | > 100 | 61.8 | > 100 | 36.6 | > 100 | 52 | > 100 | 38.7 | > 100 | > 100 | > 100 | 20.5 | 62.6 | 28.9 | > 100
2 | Cc1nc(Nc2ccccn2)sc1C(=O)/C=C/c1ccc(Cl)cc1 | 2.19 | > 100 | 0.458 | > 40.8 | 0.47 | 47.5 | 0.549 | > 47.2 | 0.368 | > 100 | 0.325 | 5.48 | 0.344 | > 100 | 0.308 | 23 | 0.518 | > 100 | 0.472 | > 100
3 | Cc1ccc(S(=O)(=O)c2nc(-c3ccccc3)oc2S(C)=O)cc1 (centres undefined) | 1.95 | 3.5 | 1.4 | 2.81 | 1.81 | 5.03 | 1.44 | 2.82 | 2.03 | 4.45 | 1.03 | 2.35 | 1.21 | 3.62 | 10 | 22.2 | 1.67 | 7.7 | 1.77 | 3.79
4 | C=C1CCC2(C#N)[C@H]3[C@H](CC[C@@H]2C)[C@@H](C)C[C@@H](CC(C)(C)NC(=O)CN2CCC2=O)[C@H]13 (some centres undefined) | 10.2 | 23 | 6.17 | 19.7 | 10.5 | 24.8 | 13.7 | 37.8 | 4.7 | 36.6 | 3.72 | 15 | 4.58 | 23.4 | 3.27 | 13.4 | 4.02 | 23.6 | 4.94 | 38.1
5 | O=C1/C(=C/c2ccccc2)CN(C(=O)CCN2CCCC2)C/C1=C\c1ccccc1 | – | 3.38 | – | 1.85 | – | 2.54 | – | 1.94 | – | 2.42 | – | 7.66 | – | 2.63 | – | 2.6 | – | 1.07 | – | 6.17
6 | COc1cc2c(cc1O)CC1c3c(cc(O)c(OC)c3-2)CCN1C (centres undefined) | – | > 100 | – | > 100 | – | > 100 | – | > 100 | – | > 100 | – | > 100 | – | > 100 | – | > 100 | – | > 100 | – | > 100
7 | COc1cc(C)c(C2NC(=O)c3ccccc3N2)cc1C (centres undefined) | – | > 100 | – | 97.9 | – | 13.6 | – | > 100 | – | 15.6 | – | 0.518 | – | > 89 | – | 22.4 | – | > 8.5 | – | > 66.5
8 | O=C1CCC(N2C(=O)c3ccccc3C2=O)C(=O)N1 (centres undefined) | > 100 | > 100 | > 100 | > 100 | > 100 | > 100 | – | > 100 | – | > 100 | > 100 | > 100 | – | > 100 | – | > 100 | – | > 100 | – | > 100
9 | Cc1c2cc(Cl)c3ccccc3c2c[n+]2ccccc12 | 1.8 | 4.87 | 15 | 38.9 | 14 | 43.1 | 4.11 | 33 | 2.81 | 20.1 | 1.62 | 5.41 | 2.28 | 15 | 0.813 | 6.58 | 2.4 | 15.2 | 2.42 | 26.7
